Reference: patent USRE46511E1, “Fused pyrimidine derivatives for inhibition of tyrosine kinase activity” (HANMI SCIENCE CO., LTD., priority 2010, dated 2017)
pIC50: −log10 of the molar value.

What was measured:
[1] = target: T1, EGFR L858R/T790M (Homo sapiens, UniProt P00533, L858R/T790M); assay: z-lyte kinase assay, EGFR L858R/T790M; type: biochemical
T1 construct: purchased Invitrogen

[2] = target: T2, EGFR WT (Homo sapiens, UniProt P00533); assay: z-lyte kinase assay, EGFR WT; type: biochemical
T2 construct: purchased Invitrogen
T2 sequence (P00533 25-1210): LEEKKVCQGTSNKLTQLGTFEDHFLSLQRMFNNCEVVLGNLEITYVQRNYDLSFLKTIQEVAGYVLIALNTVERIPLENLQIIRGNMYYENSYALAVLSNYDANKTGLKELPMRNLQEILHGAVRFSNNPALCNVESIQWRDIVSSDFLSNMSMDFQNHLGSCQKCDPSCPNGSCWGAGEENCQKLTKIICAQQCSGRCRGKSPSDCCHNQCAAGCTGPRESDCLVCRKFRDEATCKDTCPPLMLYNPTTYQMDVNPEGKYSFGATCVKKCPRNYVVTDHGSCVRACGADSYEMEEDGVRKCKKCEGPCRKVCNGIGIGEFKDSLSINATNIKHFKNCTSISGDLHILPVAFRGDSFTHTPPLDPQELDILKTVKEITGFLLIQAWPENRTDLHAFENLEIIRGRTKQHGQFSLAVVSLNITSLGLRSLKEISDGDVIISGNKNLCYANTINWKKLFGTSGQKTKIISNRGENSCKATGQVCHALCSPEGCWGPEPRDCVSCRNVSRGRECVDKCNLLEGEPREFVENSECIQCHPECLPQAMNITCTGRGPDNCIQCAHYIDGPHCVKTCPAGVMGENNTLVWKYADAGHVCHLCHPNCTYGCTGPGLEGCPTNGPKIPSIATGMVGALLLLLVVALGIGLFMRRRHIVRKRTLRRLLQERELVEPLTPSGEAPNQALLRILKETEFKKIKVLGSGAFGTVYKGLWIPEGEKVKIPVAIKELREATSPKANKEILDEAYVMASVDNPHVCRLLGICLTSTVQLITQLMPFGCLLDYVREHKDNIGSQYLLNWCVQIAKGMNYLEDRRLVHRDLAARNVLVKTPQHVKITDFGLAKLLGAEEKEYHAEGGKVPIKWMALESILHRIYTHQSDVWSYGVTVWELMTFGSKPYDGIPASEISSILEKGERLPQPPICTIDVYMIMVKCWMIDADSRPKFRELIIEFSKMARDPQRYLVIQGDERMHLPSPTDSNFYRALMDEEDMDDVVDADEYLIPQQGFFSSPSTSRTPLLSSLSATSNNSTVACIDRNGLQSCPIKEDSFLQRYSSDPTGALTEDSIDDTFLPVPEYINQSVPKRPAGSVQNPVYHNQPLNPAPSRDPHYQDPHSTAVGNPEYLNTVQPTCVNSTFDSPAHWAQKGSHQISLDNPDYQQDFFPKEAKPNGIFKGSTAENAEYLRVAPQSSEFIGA

[3] = system: NCI-H1975 (EGFR L858R/T790M); assay: Inhibition test for growth of cancer cell expressing EGFR (MTS), NCI-H1975; type: cell-based; conditions: Homo sapiens; NCI-H1975 cells, 48 hours, MTS; read-out: GI50 NCI-H1975 EGFR L858R/T790M
[4] = system: HCC827 (EGFR DelE746_A750); assay: Inhibition test for growth of cancer cell expressing EGFR (SRB), HCC827; type: cell-based; conditions: Homo sapiens, HCC827, 72 h, HCC827 cells, 72 hours, SRB; read-out: GI50 HCC827 EGFR DelE746_A750;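 note: cells in 96-well plates exposed to tenfold serial dilutions from 100 µM, fixed with trichloroacetic acid, SRB-stained, absorbance read at 540 nm, DMSO under 1%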
[5] = Body weight change in nude mice xenografted with NCI-H1975 cancer cells; type: in vivo; conditions: for mBWL (maximum body weight loss): oral, one time a day for 10 days, measured on 10th day after administration
Protocol: (§1) . In the test, a tumor in the sixth generation isolated from an individual was cut into a size of 30 mg, and transplanted subcutaneously into right flanks of mice using a 12-gauge trocar. The volume of tumor (V) is calculated from following equation 1 after measuring a long diameter (L) and a short diameter (S) using a vernier caliper twice a week for 18 days of test. All test materials were orally administered one time a day for total 10 days, and the tumor growth inhibition rate (IR: tumor growth inhibition rate (%) calculated based on a vehicle-treated control) and the maximum body weight loss (mBWL: maximum body weight loss calculated based on the body weight just before administration) were calculated using following equations 2 and 3. V=L×S^2/2 <Equation 1>
wherein, RTG is a relative tumor growth, which is the mean tumor volume on a particular day based on […] mean tumor volume. mBWL(%)=(1−(mean body weight on day x/mean body weight just before administration))×100 <Equation 3>
wherein, day x is a day on which the body weight loss is largest during the test.

[6] = system: A431 (EGFR WT); assay: Inhibition test for growth of cancer cell expressing EGFR (SRB), A431; type: cell-based; conditions: Homo sapiens, A-431; A431 cells, 72 hours, SRB; read-out: GI50 A431 EGFR WT;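 note: cells in 96-well plates exposed to tenfold serial dilutions from 100 µM down to 10^−6 µM, DMSO under 1%, SRB staining read as absorbance at 540 nm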
[7] = system: NCI-H1975 cancer cells; assay: Anticancer efficacy test in nude mice xenografted with NCI-H1975 cancer cells; type: in vivo; conditions: oral, one time a day for 10 days, measured on 16th day after administration
Protocol: NCI-H1975 cell (lung cancer cell) was purchased from American Type Culture Collection (ATCC). After formation of tumor by subcutaneous injection with 1×10^8 cells/0.3 mL of tumor cell suspension on the back of mice, passages were carried out and tumor in at least third generation was used in the test.
as §1, with “In” for “. In”
wherein, L is a long diameter and S is a short diameter. IR(%)=(1−(RTG of the treatment group of test material)/(RTG of the control group))×100 <Equation 2>

[8] = target: T3, JAK3 (Homo sapiens, UniProt P52333); assay: z-lyte kinase assay, JAK3; type: biochemical
T3 construct: purchased Invitrogen
T3 sequence (P52333 1-1124): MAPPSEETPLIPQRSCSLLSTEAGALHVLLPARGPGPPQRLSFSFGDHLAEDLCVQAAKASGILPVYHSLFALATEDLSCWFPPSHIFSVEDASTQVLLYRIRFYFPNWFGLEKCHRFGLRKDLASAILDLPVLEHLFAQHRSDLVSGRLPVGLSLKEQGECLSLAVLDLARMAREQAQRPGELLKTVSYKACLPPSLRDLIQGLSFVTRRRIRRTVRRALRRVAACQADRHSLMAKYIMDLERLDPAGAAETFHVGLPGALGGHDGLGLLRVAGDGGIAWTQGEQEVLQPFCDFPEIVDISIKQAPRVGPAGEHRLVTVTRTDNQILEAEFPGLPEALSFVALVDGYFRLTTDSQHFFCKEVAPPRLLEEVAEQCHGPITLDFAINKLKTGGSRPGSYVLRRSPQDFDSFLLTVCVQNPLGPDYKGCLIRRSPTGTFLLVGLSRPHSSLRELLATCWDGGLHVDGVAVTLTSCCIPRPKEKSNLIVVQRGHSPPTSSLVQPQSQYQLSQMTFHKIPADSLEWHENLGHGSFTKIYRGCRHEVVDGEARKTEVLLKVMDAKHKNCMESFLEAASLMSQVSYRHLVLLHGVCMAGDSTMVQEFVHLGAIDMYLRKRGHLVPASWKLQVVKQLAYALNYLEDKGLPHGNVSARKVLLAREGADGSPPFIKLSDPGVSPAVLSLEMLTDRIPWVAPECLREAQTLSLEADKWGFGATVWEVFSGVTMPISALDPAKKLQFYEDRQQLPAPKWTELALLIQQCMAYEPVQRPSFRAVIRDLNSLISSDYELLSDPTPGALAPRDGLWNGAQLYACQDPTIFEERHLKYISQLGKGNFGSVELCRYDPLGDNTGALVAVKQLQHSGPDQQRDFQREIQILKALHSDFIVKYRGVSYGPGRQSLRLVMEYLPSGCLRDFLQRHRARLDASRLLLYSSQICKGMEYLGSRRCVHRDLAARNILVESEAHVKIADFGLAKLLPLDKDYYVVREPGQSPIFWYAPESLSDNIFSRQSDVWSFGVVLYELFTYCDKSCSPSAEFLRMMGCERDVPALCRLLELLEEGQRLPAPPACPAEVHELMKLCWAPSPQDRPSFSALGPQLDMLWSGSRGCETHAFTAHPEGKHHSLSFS
Protocol: (§2) The inhibiting activities of the inventive compounds obtained in Examples 1 to 237 against EGFR WT and EGFR L858R/T790M kinase were determined using z-lyte kinase assay kit (Invitrogen, PV3191). The kinases used in the test were purchased from Invitrogen.
(§3) The compounds obtained in Examples 1 to 237 were each prepared to 10 mM DMSO solution, and a solution containing 4% DMSO were prepared therefrom and diluted to a concentration of 1 μM to 0.0001 μM. […] The test was conducted in a 384 well polystyrene flat-bottomed plates. 5 μl of the diluted solution of each compound was added to each well, and 10 μl of a mixture of peptide substrate and kinase in a suitable concentration and 5 μl of 5˜300 μM ATP solution were successively added thereto and the plate was incubated in a stirrer at room temperature for 60 minutes. After 60 mins, 10 μl of coloring reagent was added to the resulting mixture to initiate a fluorescence reaction of peptide substrate and a terminating solution was added thereto for terminating the reaction. A fluorescence value of each well was determined with a fluorescence meter (Molecular Device) at 400 nm (excitation filter) and 520 nm (emission filter). […] The calculation of IC50 and the result analysis were carried out by using Microsoft Excel.
(§4) The inhibiting activities of the inventive compounds obtained in Examples 1 to 237 against BTK and JAK3 kinases were determined, respectively. The procedure of Test Example 2 was repeated except that BTK and JAK3 kinases (Invitrogen) were employed instead of using the EGFR kinase.

[9] = target: T4, BTK (Homo sapiens, UniProt Q06187); assay: z-lyte kinase assay, BTK; type: biochemical
T4 construct: purchased Invitrogen
T4 sequence (Q06187 whole entry): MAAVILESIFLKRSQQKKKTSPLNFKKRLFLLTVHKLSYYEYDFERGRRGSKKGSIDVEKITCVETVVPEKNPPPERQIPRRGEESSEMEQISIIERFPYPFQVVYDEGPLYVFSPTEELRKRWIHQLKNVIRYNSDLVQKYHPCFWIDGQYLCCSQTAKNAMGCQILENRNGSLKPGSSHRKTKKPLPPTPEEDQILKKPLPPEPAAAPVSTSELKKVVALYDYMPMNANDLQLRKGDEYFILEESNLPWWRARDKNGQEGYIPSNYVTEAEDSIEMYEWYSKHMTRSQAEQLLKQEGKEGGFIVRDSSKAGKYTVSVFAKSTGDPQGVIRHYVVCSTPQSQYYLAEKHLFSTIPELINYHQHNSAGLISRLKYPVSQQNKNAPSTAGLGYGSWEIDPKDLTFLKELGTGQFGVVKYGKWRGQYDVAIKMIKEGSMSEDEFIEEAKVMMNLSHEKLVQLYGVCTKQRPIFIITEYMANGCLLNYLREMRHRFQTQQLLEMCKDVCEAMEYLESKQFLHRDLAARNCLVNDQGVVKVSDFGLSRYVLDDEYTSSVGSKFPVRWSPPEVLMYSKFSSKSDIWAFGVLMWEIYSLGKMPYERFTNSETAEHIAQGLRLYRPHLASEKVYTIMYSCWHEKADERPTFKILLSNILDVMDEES
Protocol: as §2, §3, §4

T1 sequence (P00533 25-1210 T790M/L858R): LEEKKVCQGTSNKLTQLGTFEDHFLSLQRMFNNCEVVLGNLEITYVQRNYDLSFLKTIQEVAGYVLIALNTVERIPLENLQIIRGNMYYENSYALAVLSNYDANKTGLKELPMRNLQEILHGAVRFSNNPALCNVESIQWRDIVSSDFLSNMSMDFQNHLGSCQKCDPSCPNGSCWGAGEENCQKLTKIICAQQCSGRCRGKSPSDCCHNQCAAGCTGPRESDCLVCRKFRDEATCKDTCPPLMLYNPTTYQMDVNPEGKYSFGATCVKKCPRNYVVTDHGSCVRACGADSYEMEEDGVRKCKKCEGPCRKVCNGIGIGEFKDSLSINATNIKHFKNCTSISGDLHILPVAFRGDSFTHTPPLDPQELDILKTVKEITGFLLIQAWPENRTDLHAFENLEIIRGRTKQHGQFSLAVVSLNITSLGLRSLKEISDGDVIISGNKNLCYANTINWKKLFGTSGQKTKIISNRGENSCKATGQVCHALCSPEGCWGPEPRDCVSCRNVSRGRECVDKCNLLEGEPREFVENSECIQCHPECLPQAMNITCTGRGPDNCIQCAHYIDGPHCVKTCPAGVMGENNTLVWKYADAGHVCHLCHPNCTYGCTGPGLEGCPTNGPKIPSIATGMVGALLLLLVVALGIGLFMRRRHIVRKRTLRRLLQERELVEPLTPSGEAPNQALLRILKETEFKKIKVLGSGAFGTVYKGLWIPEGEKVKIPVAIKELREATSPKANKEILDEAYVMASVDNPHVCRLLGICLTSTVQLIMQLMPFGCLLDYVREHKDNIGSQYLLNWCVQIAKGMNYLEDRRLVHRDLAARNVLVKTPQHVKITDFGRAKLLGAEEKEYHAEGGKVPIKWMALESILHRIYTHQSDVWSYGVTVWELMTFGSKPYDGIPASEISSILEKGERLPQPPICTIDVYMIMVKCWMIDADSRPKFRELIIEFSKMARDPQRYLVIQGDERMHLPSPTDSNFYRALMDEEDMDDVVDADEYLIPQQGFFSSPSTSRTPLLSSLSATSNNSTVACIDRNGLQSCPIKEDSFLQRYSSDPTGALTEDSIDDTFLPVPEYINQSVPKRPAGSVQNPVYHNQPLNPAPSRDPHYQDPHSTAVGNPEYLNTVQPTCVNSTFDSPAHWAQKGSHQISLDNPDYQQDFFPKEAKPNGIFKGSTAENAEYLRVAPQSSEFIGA

SMILES | pIC50 [1] | pIC50 [2] | GI50 [3] | GI50 [4] | mBWL (maximum body weight loss) ([5]; 70 mg/kg) | weight gain ([5]; in therapeutically equivalent dose (70 mg/kg), NCI-H1975 xenografted nude mice) | GI50 [6] | IR (tumor growth inhibition rate) ([7]; 70 mg/kg) | mBWL (maximum body weight loss) ([5]; 50 mg/kg) | IR (tumor growth inhibition rate) ([7]; 50 mg/kg) | pIC50 [8] | pIC50 [9]
C=CC(=O)Nc1cccc(Oc2nc(Nc3ccc(C4CCCN(C)C4)cc3OC)nc3ccsc23)c1 (centres unmarked) [Example 115] | > 7.30 | < 6.00 | < 50 nM | < 50 nM |  |  |  |  |  |  |  | 
C=CC(=O)Nc1cccc(Oc2nc(Nc3ccc(N4CCN(C)CC4)cc3OC)nc3ccsc23)c1 [Example 2] | > 7.30 | < 6.00 | 50 to 100 nM | 50 to 100 nM | −7.6% | 7.6% | > 1000 nM | 75% |  |  |  | 
C=CC(=O)Nc1cccc(Nc2nc(Nc3ccc(N4CCN(C)CC4)c(F)c3)nc3ccsc23)c1 [Example 215] | > 7.30 | < 6.00 | < 50 nM | < 50 nM |  |  |  |  |  |  |  | 
CN(C)C/C=C/C(=O)Nc1cc2c(Nc3ccc(F)c(Cl)c3)ncnc2cc1O[C@H]1CCOC1 [BIBW2992, Afatinib, reference compound] |  |  |  |  |  |  |  |  | 9.1% | 77% |  | 
C=CC(=O)Nc1cccc(Oc2nc(Nc3ccc(N4CCC(N5CCCCC5)CC4)cc3)nc3ccsc23)c1 [Example 48] | > 7.30 | 6.00 to 7.00 | < 50 nM | < 50 nM |  |  | > 1000 nM |  |  |  | ≥ 7.30 | ≥ 7.30
C=CC(=O)Nc1cccc(Oc2nc(Nc3ccc(NC4CCN(C)CC4)c(F)c3)nc3ccsc23)c1 [Example 129] |  |  | < 50 nM | < 50 nM |  |  | > 1000 nM |  |  |  | ≥ 7.30 | ≥ 7.30
C=CC(=O)Nc1cccc(Oc2nc(Nc3ccc(CN4CCC(N5CCOCC5)CC4)cc3)nc3ccsc23)c1 [Example 181] |  |  | < 50 nM | < 50 nM |  |  | > 1000 nM |  |  |  | ≥ 7.30 | ≥ 7.30
C=CC(=O)Nc1cccc(Oc2nc(Nc3ccc(NC4CCN(C)CC4)c(F)c3)nc3ccoc23)c1 [Example 237] |  |  | < 50 nM | < 50 nM |  |  | > 1000 nM |  |  |  | ≥ 7.30 | ≥ 7.30
C=CC(=O)Nc1cccc(Oc2nc(Nc3ccc(CN4CCOCC4)cc3)nc3ccsc23)c1 [Example 187] |  |  | < 50 nM | 50 to 100 nM |  |  | > 1000 nM |  |  |  | 7.00 to 7.30 | 7.00 to 7.30
C=CC(=O)Nc1cccc(Nc2nc(Nc3ccc(N4CCN(C)CC4)cc3)nc3ccsc23)c1 [Example 206, N-(3-(2-(4-(4-methylpiperazin-1-yl)phenylamino)thieno[3,2-d]pyrimidin-4-ylamino)phenyl)acrylamide] | > 7.30 | 6.00 to 7.00 | < 50 nM | < 50 nM |  |  | > 1000 nM |  |  |  |  | 
C=CC(=O)Nc1cccc(Oc2nc(Nc3ccc(CCN4CCN(CC)CC4)cc3)nc3ccsc23)c1 [Example 99] |  |  | < 50 nM | 50 to 100 nM |  |  | > 1000 nM |  |  |  | 7.00 to 7.30 | ≥ 7.30
C=CC(=O)Nc1cccc(Oc2nc(Nc3ccc(N4CCN(C)CC4)c(F)c3)nc3ccsc23)c1 [Example 3] |  |  | < 50 nM | < 50 nM |  |  | > 1000 nM |  |  |  | 7.00 to 7.30 | ≥ 7.30
C=CC(=O)Nc1cccc(Sc2nc(Nc3ccc(N4CCN(C)CC4)cc3)nc3ccsc23)c1 [Example 223, N-(3-(2-(4-(4-methylpiperazin-1-yl)phenylamino)thieno[3,2-d]pyrimidin-4-ylthio)phenyl)acrylamide] |  |  | < 50 nM | < 50 nM |  |  | > 1000 nM |  |  |  | ≥ 7.30 | ≥ 7.30
C=CC(=O)Nc1cccc(Oc2nc(Nc3ccc(C(=O)NC4CCN(C)CC4)cc3)nc3ccsc23)c1 [Example 82] |  |  | < 50 nM | < 50 nM |  |  | > 1000 nM |  |  |  | ≥ 7.30 | ≥ 7.30
C=CC(=O)Nc1cccc(Oc2nc(Nc3ccc(NCCN(C)C)c(F)c3)nc3ccsc23)c1 [Example 199] |  |  | < 50 nM | < 50 nM |  |  | > 1000 nM |  |  |  | ≥ 7.30 | ≥ 7.30
C=CC(=O)Nc1cccc(Oc2nc(Nc3ccc(CN4CCN(C)CC4)cc3)nc3ccsc23)c1 [Example 182] |  |  | < 50 nM | < 50 nM |  |  | > 1000 nM |  |  |  | 7.00 to 7.30 | ≥ 7.30
C=CC(=O)Nc1cccc(Oc2nc(Nc3ccc(N4CCOCC4)c(F)c3)nc3ccsc23)c1 [Example 122] | > 7.30 | < 6.00 | < 50 nM | < 50 nM |  |  | > 1000 nM |  |  |  |  | 
C=CC(=O)Nc1cccc(Oc2nc(Nc3ccc(N4CCN(C)CC4)cc3)nc3ccoc23)c1 [Example 228, N-(3-((2-((4-(4-methylpiperazin-1-yl)phenyl)amino)furo[3,2-d]pyrimidin-4-yl)oxy)phenyl)acrylamide] |  |  | < 50 nM | < 50 nM |  |  | 100 to 1000 nM |  |  |  | ≥ 7.30 | ≥ 7.30
C=CC(=O)Nc1cccc(Oc2nc(Nc3ccc(N4CCOCC4)cc3)nc3ccsc23)c1 [Example 29] |  |  | < 50 nM | 50 to 100 nM |  |  | > 1000 nM |  |  |  | ≥ 7.30 | ≥ 7.30
